One may read the IC50 as the midpoint of a concentration-inhibition curve.

SMILES strings stand for the structures.

One test concerns BJELR. Put plainly: Sytox primary screen. The conditions noted are these: Homo sapiens, Sytox screen, 48 hours, read-out: IC50 in BJELR. The test is classed as cell-based. The text has this:
The Sytox primary screen is a phenotypic assay which monitors alterations in cell survival-proliferation as a result of compound treatment. It was devised as high throughput method to identify compounds which specifically alter the growth potential of cells harboring the causative mutations found in cancer patients while not affecting the growth of normal cells.
The assay relies upon an inexpensive, simple and reliable readout of a membrane impermeable fluorescent dye (Sytox, from Molecular Probes) which binds to nucleic acid. In healthy cells, no signal is detected because the cell's membrane is intact and the dye will not enter. However, if a cell's membrane is compromised as a result of apoptosis or necrosis, a fluorescent signal proportional to the number of similarly affected cells will be detected. By utilizing a two-step readout (final read in the presence of detergent to permit labeling of all cells), the assay can identify compounds which produce cytostasis, cytotoxicity and/or mitogenesis. The first read or “dead cell” read provides an estimate of the toxicity of a given compound by indicating the number of dead or dying cells in the culture at the time of assay. The second read or “total cell” read captures both the cumulative effects of cytoxicity in reducing the size of the cell population as well as any cytostatic or anti-proliferative effects a test compound may exert on the cells in the test population in the absence of toxicity.
For the purpose of screening, the previously described BJ-TERT line was defined as the “normal” reference cell line and BJ-TERT/LT/ST/RAS^V12 cells were the tumorigenic cell line. Cells were seeded overnight in 96 well plates at densities which without treatment would permit 95% confluence in the wells 72 H later. The following day, the cells were exposed to test compounds in a dilution series for a period of 48 hours. Following this incubation period, the Sytox reagent was added to the cultures at the manufacturer's recommended concentration and the dead cell fluorescence read was taken. After completion of this measurement, the detergent Saponin was added to each well of the cultures to permeabilize the membranes allowing the Sytox reagent to enter every cell thereby, facilitating measurement of the total number of cells remaining in the culture.

A further test relates to PANC-1 xenografts. Put plainly: PANC-1 tumor treatment study. The test is classed as in vivo. The conditions noted are these: immunodeficient nude mouse; once a day for five consecutive days. The protocol:
The experimental plan for the PANC-1 study was essentially identical to that of the HT-1080 study outlined above in Example 10 with the following exceptions: approximately 30-40 mg fragment of passaged PANC-1 tumor tissue was implanted subcutaneously in the right flank of an immunodeficient nude mouse. Tumor growth was monitored daily and when the tumors reached approximately 100 mm^3, animals harboring similarly sized tumors were group matched and compound dosing was initiated. Administration of compound 5 occurred once a day for five consecutive days at the doses listed below. In the PANC-1 xenografts, gemcitabine, administered at the maximum tolerated dose for the model, was used as a control. The gemcitabine regimen was 180 mg/kg […] on every third day over a period of 9 days.

For the next test, the system named is HT-1080 xenografts. Put plainly: HT-1080 tumor treatment study. The test is classed as in vivo, mouse. Particulars: nude Balb/c mice; 100 or 50 mg/Kg, QD×5 days, IP. The protocol:
Nude Balb/c (Nu/Nu strain, Charles River Laboratories), female, 5-6 week. old (˜20 g average body weight).
Both compounds were formulated in an identical manner. For the 100 mg/kg dose level, each compound was delivered at a concentration of 10.0 mg/ml, in an injection volume of 0.2 ml. For the 50 mg/kg dose level, each compound was delivered at a concentration of 5.0 mg/ml, in an injection volume of 0.2 ml. For both dose levels, the vehicle contained 0.025% Tween-80, 0.01% benzyl alcohol, 35 mM acetic acid (HOAc), 100 mM potassium phosphate buffer, and 32 mM sucrose, pH=6.5.
Beginning when the mean tumor volume reached ˜200 mm^3, and continuing through day 5, every day, each animal was administered a single IP injection of one of the above treatments, for a total of 5 doses.
Each of 70 mice was implanted with 1×10^7 HT-1080 cells by SC injection of 0.1 cc of inoculum into the right hind flank. A 25 G×⅝″ needle size was used. […]
Starting on Day 1, all animals were weighed, and tumor dimensions (length (L) and width (W)) were measured, every other day. […]
The resulting tumor volume values were averaged for each study group for each time point, and were then plotted against time. Variance was expressed as standard error of the mean (±SEM).

Test [1] relates to BJ-TERT/LT/ST/RAS^V12 cells relative to BJ-TERT cells. The experiment in a line: Alamar Blue viability assay, tumorigenic versus wild type cells. The test is classed as cell-based, human. The protocol:
Alamar Blue is reduced by mitochondrial enzyme activity in viable cells, causing both colorimetric and fluorescent changes (Nociari et al., 1998, J. Immunol. Methods 13, 157-167). Cells were seeded at a density of 6000 cells (50 μl) per well in a 384-well black, clear bottom plate using a syringe bulk dispenser (Zymark). 10 μl was removed from a two-fold serially diluted erastin plate (6× final concentration) using a 384 fixed cannula head, making the final concentration 20 μg/ml in the well with highest concentration. The plates were incubated for 24 hours. Alamar Blue (Biosource International) was added to each well by diluting 1:10 and incubated for 16 hours at 37° C. Fluorescence intensity was determined using a Packard Fusion platereader with an excitation filter centered on 535 nm and an emission filter centered on 590 nm. Average percentage inhibition at each concentration was calculated. Error bars indicate one standard deviation.
The effect of erastin or erastin B on cell viability was measured using Alamar Blue as described in Example 3 in both tumorigenic BJ-TERT/LT/ST/RAS^V12 (BJELR) cells and wild type BJ-TERT (BJEH) cells. In this example, cell viability was measured at 1, 2, and 3 days after treatment with erastin or erastin B (data for days 1 and 3 not shown). Average percentage inhibition at each concentration was measured.
The effect on cell viability of each of the two isomers of Compound 20 was measured using the Alamar Blue assay described in Example 3 in both tumorigenic BJ-TERT/LT/ST/RAS^V12 cells and wild type BJ-TERT cells. Average percentage inhibition at each concentration was measured.
The effect on cell viability of erastin or Compound 21 was measured using the Alamar Blue assay as described in Example 3 in both tumorigenic BJ-TERT/LT/ST/RAS^V12 cells and in wild type BJ-TERT cells. Average percentage inhibition at each concentration was measured. […]
(In general: The colour change of resazurin is a common sign of viable cells or microbes.)

Test [2] relates to BJ-TERT/LT/ST/RAS^V12 cells. Put plainly: Annexin V-FITC apoptosis assay. The format is cell-based, human. The conditions noted are these: erastin-treated (9 μM); untreated 6%. The protocol: BJ-TERT/LT/ST/RAS^V12 cells were seeded at 1×10^6 cells per dish in 100 mm dishes and allowed to grow overnight. Cells were treated with erastin (5 or 10 μg/ml) for 6, 8 or 11 h. A camptothecin-treated (0.4 μg/ml) control was maintained, treated at the time of seeding for 20 hours. After the treatment, cells were harvested with trypsin/EDTA and washed once with fresh medium containing serum and then twice with phosphate buffered saline. Cells were resuspended in 1× binding buffer (BD Pharmingen) at a concentration of 1×10^6 cells/ml. 100 μl (1×10^5 cells) was incubated with 5 μl of Annexin V-FITC (BD Pharmingen) and propidium iodiode (BD Pharmingen) for 15 minutes in the dark at room temperature. Then 400 μl of the 1× binding buffer was added and the cells analyzed by flow cytometry (Becton-Dickinson). Data were acquired and analyzed using Cellquest software.

For test [3], the system named is BJ-TERT/LT/ST/RAS^V12 cells. Put plainly: Calcein AM viability assay, dilution series. The conditions noted are these: within 18 hours; BJ-TERT/LT/ST/RAS^V12 cells. The test is classed as cell-based, human. The protocol:
Described here is work carried out to identify compounds with increased potency or activity in the presence of hTERT, LT, ST, E6, E7 or RAS^V12. Although the work described herein made use of hTERT, LT, ST, E6, E7 and RAS^V12 as transforming genes, future studies can make use of a wide variety of cancer-associated alleles using this methodology in order to define the signaling networks that involve many oncogenes and tumor suppressors. […] Cell viability was measured using the dye calcein acetoxymethyl ester (calcein AM) (Wang et al., 1993, Hum. Immunol. 37, 264-270), which is a non-fluorescent compound that freely diffuses into cells. […]
Calcein acetoxylmethyl ester (AM) is a cell membrane-permeable, non-fluorescent compound that is cleaved by intracellular esterases to form the anionic, cell-impermeable, fluorescent compound calcein. […] Total fluorescence intensity in each well was recorded on a Packard Fusion platereader, and converted to a percent inhibition of signal by subtracting the instrument background and dividing by the average signal obtained when cells were not treated with any compound. […]
Mean RFU (relative fluorescence units) for untreated cells was calculated by averaging columns 1, 2, and 23 (wells with cells but lacking compounds). The calcein background was calculated by averaging column 24 (wells with calcein, but lacking cells). […]

`CCOc1ccccc1-n1c(C(C)N2CCNCC2)nc2ccccc2c1=O` (centres unmarked) [Compound 6]: the IC50 in the test on BJELR is at least 1000 nM. For the same molecule, the “antitumor activity in PANC-1 xenografts” value with PANC-1 xenografts was “tumor growth inhibition”. Also, the “antitumor activity in HT-1080 xenografts” value in the test on HT-1080 xenografts was “tumor growth inhibition”. On to `CCOc1ccccc1-n1c(CN2CCN(CC#N)CC2)nc2ccccc2c1=O` [Compound 7], for which the concentration for half-maximal inhibition (IC50) in the test with BJELR was at least 100 nM.

As to `CCOc1ccccc1-n1c(C(C)N2CCN(C)CC2)nc2ccccc2c1=O` (centres unmarked) [Compound 8], the IC50 in the test with BJELR is at least 1000 nM.

As for `CCOc1ccccc1-n1c(C(C)N2CCN(CCO)CC2)nc2ccccc2c1=O` (centres unmarked) [Compound 9], in the test with BJELR, the IC50 was at least 1000 nM. Still for that read-out and setting: next, `CCOc1ccccc1-n1c(CN2CCN(C)CC2)nc2ccccc2c1=O` [Compound 10]: at least 1000 nM; `CCOc1ccccc1-n1c(CN2CCN(CC)CC2)nc2ccccc2c1=O` [Compound 11]: at least 100 nM; `CCOc1ccccc1-n1c(CN2CCCN(C)CC2)nc2ccccc2c1=O` [Compound 12]: below 100 nM. The same measure, in the same setting: next, `CCOc1ccccc1-n1c(CN2CCCNCC2)nc2ccccc2c1=O` [Compound 13]: below 100 nM; `CCOc1ccccc1-n1c(C(C)N2CCNCC2)nc2cc(Cl)ccc2c1=O` (centres unmarked) [Compound 14]: at least 100 nM; `O=c1c2ccccc2nc(CN2CCNCC2)n1-c1c(Cl)cccc1Cl` [Compound 16]: at least 100 nM. The same measure, in the same setting: next, `CCN1CCN(Cc2nc3ccccc3c(=O)n2-c2c(Cl)cccc2Cl)CC1` [Compound 17]: at least 100 nM. `CCOc1ccccc1-n1c(CN2CCN(C(=O)COc3ccc(Cl)cc3)CC2)nc2ccccc2c1=O` [Compound 21, 2-({4-[(4-chlorophenoxy)acetyl]piperazin-1-yl}methyl)-3-(2-ethoxyphenyl)quinazolin-4(3H)-one]: the “lethality in BJ-TERT/LT/ST/RAS^V12 (BJELR) cells compared to BJ-TERT (BJEH) cells” value in test [1] was “selective lethality”. Moreover, the “profile compared to erastin” value in test [1] (both cell types) is recorded as “profile nearly identical to that of erastin”. Regarding `CCOc1ccccc1-n1c(C(C)N2CCN(C(=O)COc3ccc(Cl)cc3)CC2)nc2ccccc2c1=O` (centres unmarked) [Erastin, 2-[1′-(N-(4″-chlorophenoxyacetyl)-N-piperazino]-ethyl]-3-(2′″-ethoxyphenyl)-quinazolin-4-one], in test [2], the “percentage of cells in M1 region (Annexin V staining)” value turned out to be 6%. In test [3], the “effectiveness (cell death)” value was 100%.

(Values after US20070161644A1, “Erastin analogs and uses thereof” (priority 2005, published 2007).)
